Experimental data reported in patent US12522602B2, “Derivatives having 2,3-dihydro-1H-indene or 2,3-dihydrobenzofuran moiety or pharmaceutically acceptable salt thereof and pharmaceutical compositions comprising the same” (YUHAN CORPORATION, priority 2019, dated 2026).

These compounds were tested on GM1 production in Jurkat cells (assay: cells). Conditions: Homo sapiens, Jurkat, 72 h.
Assay type: cell-based
In the case of CC1(C)Cc2cc(-c3cccc(OCCF)c3)ccc2C1NC(=O)O[C@@H]1CN2CCC1CC2 (stereo partly drawn) [Example 197, (S)-quinuclidin-3-yl (5-(3-(2-fluoroethoxy)phenyl)-2,2-dimethyl-2,3-dihydro-1H-inden-1-yl)carbamate], the IC50 is reported as 8.7 nM.
For CCOc1ccc(C)cc1-c1ccc2c(c1)CC(C)(C)C2NC(=O)O[C@@H]1CN2CCC1CC2 (stereo partly drawn) [Example 198, (S)-quinuclidin-3-yl (5-(2-ethoxy-5-methylphenyl)-2,2-dimethyl-2,3-dihydro-1H-inden-1-yl)carbamate], the IC50 was 11.7 nM.
CCCOc1cccc(-c2ccc3c(c2)CC(C)(C)C3NC(=O)O[C@@H]2CN3CCC2CC3)c1 (stereo partly drawn) [Example 199, (S)-quinuclidin-3-yl (2,2-dimethyl-5-(3-propoxyphenyl)-2,3-dihydro-1H-inden-1-yl)carbamate] showed an IC50 of 5.5 nM.
For COc1ccc(C)cc1-c1ccc2c(c1)CC(C)(C)C2NC(=O)O[C@@H]1CN2CCC1CC2 (stereo partly drawn) [Example 200, (S)-quinuclidin-3-yl (5-(2-methoxy-5-methylphenyl)-2,2-dimethyl-2,3-dihydro-1H-inden-1-yl)carbamate], the IC50 was 3.7 nM.
For CCCCOc1ccc(F)cc1-c1ccc2c(c1)CC(C)(C)C2NC(=O)O[C@@H]1CN2CCC1CC2 (stereo partly drawn) [Example 201, (S)-quinuclidin-3-yl (5-(2-butoxy-5-fluorophenyl)-2,2-dimethyl-2,3-dihydro-1H-inden-1-yl)carbamate], the IC50 was 38.2 nM.
CCCCOc1ccc(-c2ccc3c(c2)CC(C)(C)C3NC(=O)O[C@@H]2CN3CCC2CC3)cc1Cl (stereo partly drawn) [Example 202, (S)-quinuclidin-3-yl (5-(4-butoxy-3-chlorophenyl)-2,2-dimethyl-2,3-dihydro-1H-inden-1-yl)carbamate] showed an IC50 of 26.3 nM.
For CCCOc1ccc(-c2ccc3c(c2)CC(C)(C)C3NC(=O)O[C@@H]2CN3CCC2CC3)c(OCCC)c1 (stereo partly drawn) [Example 203, (S)-quinuclidin-3-yl (5-(2,4-dipropoxyphenyl)-2,2-dimethyl-2,3-dihydro-1H-inden-1-yl)carbamate], the IC50 was 8.2 nM.
Work on CCOc1ccc(-c2ccc3c(c2)CC(C)(C)C3NC(=O)O[C@@H]2CN3CCC2CC3)cc1Cl (stereo partly drawn) [Example 204, (S)-quinuclidin-3-yl (5-(3-chloro-4-ethoxyphenyl)-2,2-dimethyl-2,3-dihydro-1H-inden-1-yl)carbamate] yielded an IC50 of 57.2 nM.
Work on CC(C)COc1cccc(-c2ccc3c(c2)CC(C)(C)C3NC(=O)O[C@@H]2CN3CCC2CC3)c1 (stereo partly drawn) [Example 205, (S)-quinuclidin-3-yl (5-(3-isobutoxyphenyl)-2,2-dimethyl-2,3-dihydro-1H-inden-1-yl)carbamate] yielded an IC50 of 7.6 nM.
In the case of CCOc1ccc(-c2ccc3c(c2)CC(C)(C)C3NC(=O)O[C@@H]2CN3CCC2CC3)c(C)c1 (stereo partly drawn) [Example 206, (S)-quinuclidin-3-yl (5-(4-ethoxy-2-methylphenyl)-2,2-dimethyl-2,3-dihydro-1H-inden-1-yl)carbamate], the IC50 is reported as 14 nM.
Compound CCCOc1ccc(-c2ccc3c(c2)CC(C)(C)C3NC(=O)O[C@@H]2CN3CCC2CC3)cc1Cl (stereo partly drawn) [Example 207, (S)-quinuclidin-3-yl (5-(3-chloro-4-propoxyphenyl)-2,2-dimethyl-2,3-dihydro-1H-inden-1-yl)carbamate] has an IC50 of 58.6 nM.
CC(C)Oc1ccc(F)cc1-c1ccc2c(c1)CC(C)(C)C2NC(=O)O[C@@H]1CN2CCC1CC2 (stereo partly drawn) [Example 208, (S)-quinuclidin-3-yl (5-(5-fluoro-2-isopropoxyphenyl)-2,2-dimethyl-2,3-dihydro-1H-inden-1-yl)carbamate] showed an IC50 of 67.4 nM.
Compound CC(C)Oc1ccc(-c2ccc3c(c2)CC(C)(C)C3NC(=O)O[C@@H]2CN3CCC2CC3)cc1F (stereo partly drawn) [Example 209, (S)-quinuclidin-3-yl (5-(3-fluoro-4-isopropoxyphenyl)-2,2-dimethyl-2,3-dihydro-1H-inden-1-yl)carbamate] has an IC50 of 32.1 nM.
Compound COc1ccc(Cl)cc1-c1ccc2c(c1)CC(C)(C)C2NC(=O)O[C@@H]1CN2CCC1CC2 (stereo partly drawn) [Example 210, (S)-quinuclidin-3-yl (5-(5-chloro-2-methoxyphenyl)-2,2-dimethyl-2,3-dihydro-1H-inden-1-yl)carbamate] has an IC50 of 7.5 nM.
Cc1ccc(F)c(-c2ccc3c(c2)CC(C)(C)C3NC(=O)O[C@@H]2CN3CCC2CC3)c1 (stereo partly drawn) [Example 211, (S)-quinuclidin-3-yl (5-(2-fluoro-5-methylphenyl)-2,2-dimethyl-2,3-dihydro-1H-inden-1-yl)carbamate] gave an IC50 of 13.2 nM.
With CCOc1ccc(Cl)cc1-c1ccc2c(c1)CC(C)(C)C2NC(=O)O[C@@H]1CN2CCC1CC2 (stereo partly drawn) [Example 212, (S)-quinuclidin-3-yl (5-(5-chloro-2-ethoxyphenyl)-2,2-dimethyl-2,3-dihydro-1H-inden-1-yl)carbamate] the IC50 was 19.1 nM.
With CCCOc1ccc(F)cc1-c1ccc2c(c1)CC(C)(C)C2NC(=O)O[C@@H]1CN2CCC1CC2 (stereo partly drawn) [Example 213, (S)-quinuclidin-3-yl (5-(5-fluoro-2-propoxyphenyl)-2,2-dimethyl-2,3-dihydro-1H-inden-1-yl)carbamate] the IC50 was 39.8 nM.
For CCCOc1cccc(F)c1-c1ccc2c(c1)CC(C)(C)C2NC(=O)O[C@@H]1CN2CCC1CC2 (stereo partly drawn) [Example 214, (S)-quinuclidin-3-yl (5-(2-fluoro-6-propoxyphenyl)-2,2-dimethyl-2,3-dihydro-1H-inden-1-yl)carbamate], the IC50 was 64.2 nM.
Work on Cc1ccc(-c2ccc3c(c2)CC(C)(C)C3NC(=O)O[C@@H]2CN3CCC2CC3)cc1F (stereo partly drawn) [Example 215, (S)-quinuclidin-3-yl (5-(3-fluoro-4-methylphenyl)-2,2-dimethyl-2,3-dihydro-1H-inden-1-yl)carbamate] yielded an IC50 of 14.9 nM.
In the case of CCCOc1ccc(-c2ccc3c(c2)CC(C)(C)C3NC(=O)O[C@@H]2CN3CCC2CC3)cc1F (stereo partly drawn) [Example 216, (S)-quinuclidin-3-yl (5-(3-fluoro-4-propoxyphenyl)-2,2-dimethyl-2,3-dihydro-1H-inden-1-yl)carbamate], the IC50 is reported as 28.7 nM.
Compound CC(C)Oc1ccc(Cl)cc1-c1ccc2c(c1)CC(C)(C)C2NC(=O)O[C@@H]1CN2CCC1CC2 (stereo partly drawn) [Example 217, (S)-quinuclidin-3-yl (5-(5-chloro-2-isopropoxyphenyl)-2,2-dimethyl-2,3-dihydro-1H-inden-1-yl)carbamate] has an IC50 of 72.1 nM.
CCCCOc1cccc(-c2ccc3c(c2)CC(C)(C)C3NC(=O)O[C@@H]2CN3CCC2CC3)c1 (stereo partly drawn) [Example 218, (S)-quinuclidin-3-yl (5-(3-butoxyphenyl)-2,2-dimethyl-2,3-dihydro-1H-inden-1-yl)carbamate] showed an IC50 of 6.7 nM.
Cc1cc(F)cc(-c2ccc3c(c2)CC(C)(C)C3NC(=O)O[C@@H]2CN3CCC2CC3)c1 (stereo partly drawn) [Example 219, (S)-quinuclidin-3-yl (5-(3-fluoro-5-methylphenyl)-2,2-dimethyl-2,3-dihydro-1H-inden-1-yl)carbamate] showed an IC50 of 30.4 nM.
Cc1ccc(F)cc1-c1ccc2c(c1)CC(C)(C)C2NC(=O)O[C@@H]1CN2CCC1CC2 (stereo partly drawn) [Example 220, (S)-quinuclidin-3-yl (5-(5-fluoro-2-methylphenyl)-2,2-dimethyl-2,3-dihydro-1H-inden-1-yl)carbamate] showed an IC50 of 17.6 nM.
Compound CC1(C)Cc2cc(-c3cc(C(F)(F)F)ccc3Cl)ccc2C1NC(=O)O[C@@H]1CN2CCC1CC2 (stereo partly drawn) [Example 221, (S)-quinuclidin-3-yl (5-(2-chloro-5-(trifluoromethyl)phenyl)-2,2-dimethyl-2,3-dihydro-1H-inden-1-yl)carbamate] has an IC50 of 16.9 nM.
Work on COc1cc(F)cc(-c2ccc3c(c2)CC(C)(C)C3NC(=O)O[C@@H]2CN3CCC2CC3)c1 (stereo partly drawn) [Example 222, (S)-quinuclidin-3-yl (5-(3-fluoro-5-methoxyphenyl)-2,2-dimethyl-2,3-dihydro-1H-inden-1-yl)carbamate] yielded an IC50 of 25.6 nM.
Cc1ccc(Cl)c(-c2ccc3c(c2)CC(C)(C)C3NC(=O)O[C@@H]2CN3CCC2CC3)c1 (stereo partly drawn) [Example 223, (S)-quinuclidin-3-yl (5-(2-chloro-5-methylphenyl)-2,2-dimethyl-2,3-dihydro-1H-inden-1-yl)carbamate] showed an IC50 of 5.2 nM.
With COc1cc(-c2ccc3c(c2)CC(C)(C)C3NC(=O)O[C@@H]2CN3CCC2CC3)cc(C(F)(F)F)c1 (stereo partly drawn) [Example 224, (S)-quinuclidin-3-yl (5-(3-methoxy-5-(trifluoromethyl)phenyl)-2,2-dimethyl-2,3-dihydro-1H-inden-1-yl)carbamate] the IC50 was 18.8 nM.
Work on CC1(C)Cc2cc(-c3ccc(F)cc3Cl)ccc2C1NC(=O)O[C@@H]1CN2CCC1CC2 (stereo partly drawn) [Example 225, (S)-quinuclidin-3-yl (5-(2-chloro-4-fluorophenyl)-2,2-dimethyl-2,3-dihydro-1H-inden-1-yl)carbamate] yielded an IC50 of 21.3 nM.
COc1cc(-c2ccc3c(c2)CC(C)(C)C3NC(=O)O[C@@H]2CN3CCC2CC3)ccc1F (stereo partly drawn) [Example 226, (S)-quinuclidin-3-yl (5-(4-fluoro-3-methoxyphenyl)-2,2-dimethyl-2,3-dihydro-1H-inden-1-yl)carbamate] was tested, and the IC50 was 57 nM.
Cc1ccc(-c2ccc3c(c2)CC(C)(C)C3NC(=O)O[C@@H]2CN3CCC2CC3)cc1C (stereo partly drawn) [Example 227, (S)-quinuclidin-3-yl (5-(3,4-dimethylphenyl)-2,2-dimethyl-2,3-dihydro-1H-inden-1-yl)carbamate] gave an IC50 of 10.2 nM.
Work on Cc1cc(F)ccc1-c1ccc2c(c1)CC(C)(C)C2NC(=O)O[C@@H]1CN2CCC1CC2 (stereo partly drawn) [Example 228, (S)-quinuclidin-3-yl (5-(4-fluoro-2-methylphenyl)-2,2-dimethyl-2,3-dihydro-1H-inden-1-yl)carbamate] yielded an IC50 of 48.6 nM.
In the case of CC1(C)Cc2cc(-c3ccc(C(F)(F)F)cc3F)ccc2C1NC(=O)O[C@@H]1CN2CCC1CC2 (stereo partly drawn) [Example 229, (S)-quinuclidin-3-yl (5-(2-fluoro-4-(trifluoromethyl)phenyl)-2,2-dimethyl-2,3-dihydro-1H-inden-1-yl)carbamate], the IC50 is reported as 56.2 nM.
COc1ccc(F)c(-c2ccc3c(c2)CC(C)(C)C3NC(=O)O[C@@H]2CN3CCC2CC3)c1 (stereo partly drawn) [Example 230, (S)-quinuclidin-3-yl (5-(2-fluoro-5-methoxyphenyl)-2,2-dimethyl-2,3-dihydro-1H-inden-1-yl)carbamate] was tested, and the IC50 was 30.8 nM.
Compound COc1cccc(-c2ccc3c(c2)CC(C)(C)C3NC(=O)O[C@@H]2CN3CCC2CC3)c1F (stereo partly drawn) [Example 231, (S)-quinuclidin-3-yl (5-(2-fluoro-3-methoxyphenyl)-2,2-dimethyl-2,3-dihydro-1H-inden-1-yl)carbamate] has an IC50 of 24.3 nM.
